Drawing on patent US6413990B1, “Arylsulphonamide-substituted benzimidazoles having tryptase-inhibiting activity” (Boehringer Ingelheim Pharma KG, priority 1999, dated 2002), this text covers melting point and IC50 for three molecules.

In one data set the target is T1, rh beta tryptase (Homo sapiens, UniProt Q15661).
T1 construct: purchased Promega
Put plainly: tryptase inhibition test (cleavage of N-p-tosyl-Gly-Pro-Lys-para-nitroaniline, p-nitroaniline measured at 405 nm). To be noted: Tris HCl buffer pH 7.4 with calcium and heparin, 37° C., substrate 0.6 mM, 5 minutes pre-incubation, 5 minutes incubation. It counts as biochemical. Here is the method: The compounds according to the invention are characterised by their tryptase-inhibiting activity. This ability to inhibit tryptase was investigated using the test described below.
The measurement is carried out in Tris HCl buffer (100 mM), which additionally contains calcium (5 mM) and heparin ([…]), at pH 7.4. The standard used is rh beta tryptase which may be obtained commercially from Promega, for example. The substrate used is N-p-tosyl-Gly-Pro-Lys-para-nitroaniline in a concentration of 0.6 mM. The substrate is digested with tryptase to form p-nitroaniline which can be measured at 405 nm. Usually, an incubation period of 5 minutes and an incubation temperature of 37° C. are chosen. The enzyme activity used is 0.91 U/ml. The measurements are carried out in an Autoanalyser (Cobas Bio) made by Hofmann LaRoche. The potential inhibitory substances are used in concentrations of 10 μM in the screening, the inhibition of the tryptase being given in percent. The IC50 is determined at over 70% inhibition (concentration at which 50% of the enzyme activity is inhibited). After 5 minutes pre-incubation of the potential inhibitory substances, the substrate is added to start the reaction, the formation of p-nitroaniline being taken as a measurement of the enzyme activity after 5 minutes, after testing the linearity.
The data obtained after carrying out the tests described above (IC50 values) can be found in Table 2.

Structures are written as SMILES. Structures can show the parent of a compound that is named as a salt.

T1 sequence (Q15661 31-275): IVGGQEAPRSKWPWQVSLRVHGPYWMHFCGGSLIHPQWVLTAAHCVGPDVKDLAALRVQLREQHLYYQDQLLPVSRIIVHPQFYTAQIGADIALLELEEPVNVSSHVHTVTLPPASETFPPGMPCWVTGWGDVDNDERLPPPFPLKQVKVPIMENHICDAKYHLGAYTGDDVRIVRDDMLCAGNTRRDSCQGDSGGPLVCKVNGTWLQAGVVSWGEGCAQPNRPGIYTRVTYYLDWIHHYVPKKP

What is called melting point is the temperature, or range, at which the solid turns liquid. As for `CN(C)c1cccc2c(S(=O)(=O)N(C)c3ccc4c(c3)nc(CCc3ccc(C(=N)N)cc3)n4C)cccc12` (as salt: hydrochloride) [Example 13, N-{2-[2-(4-amidinophenyl)-ethyl]-1-methyl-benzimidazol-5-yl}-N-methyl-(dansylamide)-hydrochloride], the melting point fell in the range of 222 to 225 °C. The IC50 is the concentration that gives 50% inhibition. `CCN(CC)CCN(c1ccc2c(c1)nc(CCc1ccc(C(=N)N)cc1)n2C)S(=O)(=O)c1ccc(Cl)cc1` [Example 10, N-{2-[2-(4-amidinophenyl)-ethyl]-1-methyl-benzimidazol-5-yl}-N-diethylaminoethyl-(4-chloro-benzenesulphonamide)] yielded a melting point of 88 to 90 °C. For the same molecule, the IC50 on rh beta tryptase turned out to be 0.049 µM.

In turn, `CCN(CC)CCN(c1ccc2c(c1)nc(CCc1ccc(C(N)=NO)cc1)n2C)S(=O)(=O)c1cccc(Br)c1` [Example 36, N-{2-[2-(4-amino-hydroximinomethyl)phenyl-ethyl]-1-methyl-benzimidazol-5-yl}-N-diethylaminoethyl-(3-bromo-benzenesulphonamide)] returned a melting point of 156 °C.
